Source: BindingDB's records for doi:10.7270/Q2TX3CSC (Vanderbilt Screening Center for GPCRs, Ion Channels and …, 2009)

Target: T1, Solute carrier family 12 member 5 (Homo sapiens, UniProt Q9H2X9)
T1 sequence (Q9H2X9 whole entry): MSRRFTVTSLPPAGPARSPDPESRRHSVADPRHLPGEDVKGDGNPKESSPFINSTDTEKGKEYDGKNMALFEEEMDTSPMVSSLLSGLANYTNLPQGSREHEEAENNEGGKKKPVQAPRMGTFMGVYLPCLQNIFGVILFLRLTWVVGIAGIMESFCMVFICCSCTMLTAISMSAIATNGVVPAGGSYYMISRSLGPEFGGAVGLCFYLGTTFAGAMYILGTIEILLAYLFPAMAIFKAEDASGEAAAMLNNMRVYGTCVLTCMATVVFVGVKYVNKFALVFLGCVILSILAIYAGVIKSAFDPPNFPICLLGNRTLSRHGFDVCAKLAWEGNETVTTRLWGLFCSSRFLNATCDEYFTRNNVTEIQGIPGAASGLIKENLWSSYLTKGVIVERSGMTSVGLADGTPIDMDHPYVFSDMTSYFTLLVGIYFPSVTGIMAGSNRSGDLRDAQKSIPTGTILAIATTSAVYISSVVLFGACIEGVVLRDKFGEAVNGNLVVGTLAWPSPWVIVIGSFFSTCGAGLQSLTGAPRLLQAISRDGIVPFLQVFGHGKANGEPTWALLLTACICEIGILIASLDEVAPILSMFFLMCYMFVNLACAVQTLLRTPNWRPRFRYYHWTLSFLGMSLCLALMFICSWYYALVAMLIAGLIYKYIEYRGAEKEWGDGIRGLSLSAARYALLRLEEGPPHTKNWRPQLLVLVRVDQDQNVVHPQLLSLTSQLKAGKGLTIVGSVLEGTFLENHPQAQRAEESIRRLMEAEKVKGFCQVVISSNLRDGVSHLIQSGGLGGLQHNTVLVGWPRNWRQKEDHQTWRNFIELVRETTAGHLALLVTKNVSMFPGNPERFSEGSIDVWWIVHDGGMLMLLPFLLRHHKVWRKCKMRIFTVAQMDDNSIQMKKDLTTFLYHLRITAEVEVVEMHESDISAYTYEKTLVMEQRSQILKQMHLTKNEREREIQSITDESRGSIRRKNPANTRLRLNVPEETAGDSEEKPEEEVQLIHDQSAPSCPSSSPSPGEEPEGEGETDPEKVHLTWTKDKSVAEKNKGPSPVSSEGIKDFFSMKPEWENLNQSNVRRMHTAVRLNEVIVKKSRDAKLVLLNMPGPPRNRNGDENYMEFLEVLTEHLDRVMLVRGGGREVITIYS
Experiment: concentration-response of KCC2 transport modulators – cell-based, HEK293 KCC2, FluoZin-2 fluorescence, dose response (AID 1736)
Settings: not given

| SMILES | EC50 [µM] |
| --- | --- |
| CCOC(=O)c1cc2c(ccn2-c2ccc(F)cc2)n1CC(=O)NC(C)(C)C [4-[2-(tert-butylamino)-2-keto-ethyl]-1-(4-fluorophenyl)pyrrolo[3,2-b]pyrrole-5-carboxylic acid ethyl ester] | 51100 |
| COc1cc(C(=S)N2CCOCC2)ccc1OC(=O)Cc1ccc(F)cc1 [(2-methoxy-4-morpholin-4-ylcarbothioyl-phenyl) 2-(4-fluorophenyl)ethanoate] | 29.4 |
| Cn1c(SCc2ccccc2Cl)nc2ccccc21 [2-[(2-chlorobenzyl)thio]-1-methyl-1H-benzimidazole] | 260 |
| Cc1ccc(-c2n[nH]c(=S)n2NC=CCc2ccccc2[N+](=O)[O-])cc1 | 1.62 |
| CC1(CCc2ccccc2)NC(=O)N(Cc2nnc(-c3ccccc3Br)o2)C1=O (configuration not stated) [3-[[5-(2-bromophenyl)-1,3,4-oxadiazol-2-yl]methyl]-5-methyl-5-(2-phenylethyl)imidazolidine-2,4-dione] | 14.3 |
| Cc1cccc(OCCc2nnc(N)s2)c1C [5-[2-(2,3-Dimethyl-phenoxy)-ethyl]-[1,3,4]thiadiazol-2-ylamine] | 37.5 |
| O=C(/C=C/c1ccco1)N1CCC(Cc2ccccc2)CC1 [(E)-1-(4-benzylpiperidin-1-yl)-3-(furan-2-yl)prop-2-en-1-one] | 6.56 |
| COc1cc(C=NNC(=O)CN(Cc2ccccc2)S(=O)(=O)c2ccc3c(c2)OCCO3)ccc1O [2,3-Dihydro-benzo[1,4]dioxine-6-sulfonic acid benzyl-(4-hydroxy-3-methoxy-benzylidene-hydrazinocarbonylmethyl)-amide] | 2.79 |
| COc1cccc(Nc2nnc(S)s2)c1 [5-(3-methoxyanilino)-3H-1,3,4-thiadiazole-2-thione] | 3.05 |
| O=[N+]([O-])c1ccccc1C=C[CH+][N-]n1c(-c2ccc(Cl)cc2)n[nH]c1=S [MLS000555506] | 23.6 |
| O=C(NN1C(=O)/C(=C/c2nc3ccccc3[nH]2)SC1=S)c1ccccc1Cl [N-{5-[1-(1H-Benzoimidazol-2-yl)-meth-(Z)-ylidene]-4-oxo-2-thioxo-thiazolidin-3-yl}-2-chloro-benzamide] | 0.0822 |
| Sc1nnc(Nc2ccccc2)s1 [5-anilino-3H-1,3,4-thiadiazole-2-thione] | 2.84 |
| Cc1n[nH]c(O)c1C(c1ccc(-c2ccc(F)cc2)o1)c1c(C)n[nH]c1O [4-[[5-(4-fluorophenyl)furan-2-yl]-(3-methyl-5-oxo-1,2-dihydropyrazol-4-yl)methyl]-5-methyl-1,2-dihydropyrazol-3-one] | 8.39 |
| CN(CC(=O)N1CCN(Cc2ccccc2)CC1)S(=O)(=O)c1cccc2nsnc12 [MLS000674627] | 0.58 |
| O=C(Nc1ccc2oc(-c3ccccc3F)nc2c1)c1ccco1 [MLS000709180] | 66.5 |
| c1ccc(-c2nnc(Sc3ncnc4c3cnn4-c3ccccc3)[nH]2)cc1 [SMR000019566] | 5.95 |
| Cc1noc(/C=C/c2ccco2)c1S(=O)(=O)N1CCC(C(=O)N2CCc3ccccc3C2)CC1 [2-{[1-({5-[(E)-2-(2-furyl)vinyl]-3-methylisoxazol-4-yl}sulfonyl)piperidin-4-yl]carbonyl}-1,2,3,4-tetrahydroisoquinoline] | 4.09 |
| CC1CCN(C(=O)CSc2ccc(-c3ccc(F)cc3)nn2)CC1 [2-[6-(4-Fluoro-phenyl)-pyridazin-3-ylsulfanyl]-1-(4-methyl-piperidin-1-yl)-ethanone] | 2.66 |
| Sc1nnc(CNc2cccc(Cl)c2)o1 [5-[(3-chloroanilino)methyl]-3H-1,3,4-oxadiazole-2-thione] | 1.75 |
| CCc1ccc(OCCNC(=O)c2ccccc2SCc2ccc(F)cc2)cc1 [MLS000577152] | 1.38 |

| SMILES | EC50 [µM] |
| --- | --- |
| Sc1nnc(C2(c3ccccc3)CCCC2)o1 [5-(1-phenylcyclopentyl)-3H-1,3,4-oxadiazole-2-thione] | 3.3 |
| COc1ccc(N2C(=S)N=C(Nc3cccc(C)c3)C23CCCCC3)cc1 [1-(4-methoxyphenyl)-4-(3-methylanilino)-1,3-diazaspiro[4.5]dec-3-ene-2-thione] | 771 |
| O=C(Nc1ccc2oc(-c3ccccc3)nc2c1)c1ccncc1 [MLS000109492] | 4.95 |
| Cc1cccc(-c2nc(C[S+]([O-])CC(=O)N3CCc4ccccc4C3)c(C)o2)c1 (configuration not stated) [1-(3,4-dihydro-1H-isoquinolin-2-yl)-2-[[5-methyl-2-(3-methylphenyl)-1,3-oxazol-4-yl]methylsulfinyl]ethanone] | 7.28 |
| Cc1[nH]c2ccccc2c1Cc1nnc(S)o1 | 3.21 |
| CCC(c1nnc(SCc2nc3ccccc3s2)n1Cc1ccccc1)N(C)C (configuration not stated) [1-[5-(1,3-benzothiazol-2-ylmethylsulfanyl)-4-(phenylmethyl)-1,2,4-triazol-3-yl]-N,N-dimethyl-propan-1-amine] | 14.7 |
| CCN(CC)c1ccc2c(C)c(-c3ccc(N)cc3)c(=O)oc2c1 [3-(4-aminophenyl)-7-(diethylamino)-4-methyl-1-benzopyran-2-one] | 0.986 |
| Cc1ccc(C2=CSC3=NNC4(CCCCC4)NN23)cc1 [SMR000306481] | 2.52 |
| CCn1nnnc1SCC(=O)Nc1nc(-c2cccs2)cs1 [2-(1-Ethyl-1H-tetrazol-5-ylsulfanyl)-N-(4-thiophen-2-yl-thiazol-2-yl)-acetamide] | 1.32 |
| O=C(O)CCc1cc(I)c(Oc2ccc(O)c(I)c2)c(I)c1 [3-[4-(4-hydroxy-3-iodophenoxy)-3,5-diiodophenyl]propanoic acid] | 5.39 |
| C=C(C)Cn1c(N2CCC(Cc3ccccc3)CC2)nc2c1c(=O)[nH]c(=O)n2C [3-methyl-7-(2-methylprop-2-enyl)-8-[4-(phenylmethyl)-1-piperidinyl]purine-2,6-dione] | 20.4 |
| CC(=O)NCCC(=O)N1CCCC(CNC(=O)c2ccc(-c3ccccc3)cc2)C1 (configuration not stated) [MLS000733794] | 5 |
| Cc1cc(C(=O)COC(=O)CCc2nc3ccccc3s2)c(C)n1C [3-(1,3-benzothiazol-2-yl)propanoic acid [2-oxo-2-(1,2,5-trimethyl-3-pyrrolyl)ethyl] ester] | 97.3 |
| O=C(c1cc2c(s1)-c1ccccc1OC2)N1CCC2(CC1)OCCO2 [1,4-dioxa-8-azaspiro[4.5]decan-8-yl(4H-thieno[3,2-c][1]benzopyran-2-yl)methanone] | 24.9 |
| COc1ccc(C(=O)N2CCCC(c3ccccc3)C2)cc1 (configuration not stated) [(4-methoxyphenyl)-(3-phenyl-1-piperidinyl)methanone] | 7.32 |
| Cc1cccc(Nc2nnc(SCC(=O)c3ccc(Br)s3)s2)c1C [1-(5-bromanylthiophen-2-yl)-2-[[5-[(2,3-dimethylphenyl)amino]-1,3,4-thiadiazol-2-yl]sulfanyl]ethanone] | 1.41 |
| N#Cc1nc(-c2cccs2)oc1N1CCN(Cc2ccccc2)CC1 [5-(4-benzyl-1-piperazinyl)-2-(2-thienyl)-1,3-oxazole-4-carbonitrile] | 3.58 |
| O=C(C1CCN(c2nc3ccc(Br)cc3s2)CC1)N1CCC2(CC1)OCCO2 [8-{[1-(6-bromo-1,3-benzothiazol-2-yl)piperidin-4-yl]carbonyl}-1,4-dioxa-8-azaspiro[4.5]decane] | 14.3 |
| O=c1[nH]c2ccc(S(=O)(=O)N3CCN(c4ccccc4F)CC3)cc2s1 [6-{[4-(2-fluorophenyl)piperazin-1-yl]sulfonyl}-1,3-benzothiazol-2(3H)-one] | 5.64 |
| CCc1ccc(OCCNC(=O)c2ccccc2SCc2ccccc2)cc1 [2-(benzylthio)-N-[2-(4-ethylphenoxy)ethyl]benzamide] | 7.39 |

Same assay, conditions: inactive by the depositor's call

| SMILES | EC50 [µM] |
| --- | --- |
| O=C(O)CC/C(=C\c1cccc(NC(=O)c2ccccc2Cl)c1)c1nc2ccccc2s1 [SMR000371789] | 4.76 |
| COc1ccc(OC)c2sc(NNC(=O)COc3ccccc3)nc12 [MLS000419249] | 2.62 |
| CN(C)S(=O)(=O)c1ccc(NC(=O)CSc2ncnc3ccccc23)cc1 [MLS000394067] | 87700 |
| O=C(NCCCn1ncc2ccccc21)c1cc(COc2c(F)cccc2F)on1 [5-[(2,6-difluorophenoxy)methyl]-N-(3-indazol-1-ylpropyl)-1,2-oxazole-3-carboxamide] | 18.7 |
| O=c1oc2ccccc2c(Nc2cc3ccccc3cc2O)c1[N+](=O)[O-] [3-nitro-4-[(3-oxidanylnaphthalen-2-yl)amino]chromen-2-one] | 11.4 |
| CC(/C=C1\SC(=S)N(C(C(=O)O)C(C)C)C1=O)=C\c1ccccc1 (configuration not stated) [MLS000713304] | 2.68 |
| CN(C)CCn1c(=S)[nH]c2ccc(Cl)cc2c1=O [6-chloro-3-[2-(dimethylamino)ethyl]-2-thioxo-2,3-dihydroquinazolin-4(1H)-one] | 67.2 |
